# Experimental data reported in ChEMBL document CHEMBL4811285, “Effects of N-terminus modified Hx-amides on DNA binding affinity, sequence specificity, cellular uptake, and gene expression” (Bioorg Med Chem Lett, 2021).
# Activity calls are given as the source filed them. The calls are words filed in the database; no cut-off is given here.
# Key:
# DNA [1] = assay: Binding affinity to DNA at 5'-AAGCTT-3' (unknown origin) upto 25 uM by DNase1 footprinting based autoradiogram analysis; assay type: nucleic-acid assay; conditions: dose microM <=25
# [2] = Drug uptake in mouse NIH3T3 cells assessed as increase in fluorescence intensity at 10 uM after 24 hr by confocal microscopic analysis relative to control; assay type: ADME, cell-based; conditions: nih3t3, 24 h
# DNA [3] = assay: Binding affinity to DNA at 5'-ACGGGT-3' site (unknown origin) assessed as protection of the site from enzyme digestion at 5 uM by DNase1 footprinting based autoradiogram analysis; assay type: nucleic-acid assay
# [4] = Drug uptake in mouse NIH3T3 cells assessed as increase in fluorescence intensity at 20 uM after 24 hr by confocal microscopic analysis relative to control; assay type: ADME, cell-based; conditions: nih3t3, 24 h
# TOP2A promoter [5] = assay: Binding affinity to 5'-AACGTT-3' DNA (unknown origin) at 3 uM by DNase1 footprinting based Autoradiogram analysis; assay type: nucleic-acid assay
# DNA [6] = assay: Binding affinity to DNA at 5'-ACCGGT-3' (unknown origin) upto 25 uM by DNase1 footprinting based autoradiogram analysis; assay type: nucleic-acid assay; conditions: dose microM <=25
# DNA [7] = assay: Binding affinity to DNA at 5'-AAATTT-3' (unknown origin) upto 25 uM by DNase1 footprinting based autoradiogram analysis; assay type: nucleic-acid assay; conditions: dose microM <=25
# DNA [8] = assay: Binding affinity to DNA at 5'-AAGCTT-3' site (unknown origin) assessed as protection of the site from enzyme digestion at 5 uM by DNase1 footprinting based autoradiogram analysis; assay type: nucleic-acid assay
# TOP2A promoter [9] = assay: Binding affinity to 5'-AACGTT-3' DNA (unknown origin) at 10 uM by DNase1 footprinting based Autoradiogram analysis; assay type: nucleic-acid assay
# DNA [10] = assay: Binding affinity to DNA at 5'-ACGCGT-3' (unknown origin) upto 25 uM by DNase1 footprinting based autoradiogram analysis; assay type: nucleic-acid assay; conditions: dose microM <=25
# [11] = Drug uptake in mouse NIH3T3 cells assessed as increase in fluorescence intensity at 1 uM after 24 hr by confocal microscopic analysis relative to control; assay type: ADME, cell-based; conditions: nih3t3, 24 h
# DNA [12] = assay: Binding affinity to DNA at 5'-ACTAGT-3' (unknown origin) upto 25 uM by DNase1 footprinting based autoradiogram analysis; assay type: nucleic-acid assay; conditions: dose microM <=25
# DNA [13] = assay: Binding affinity to DNA at 5'-ACGGGT-3' (unknown origin) upto 25 uM by DNase1 footprinting based autoradiogram analysis; assay type: nucleic-acid assay; conditions: dose microM <=25
# [14] = Drug uptake in mouse NIH3T3 cells assessed as fluorescence in nucleus upto 20 uM incubated for 24 hrs under dark condition by mito-tracker dye based confocal microscopic analysis; assay type: ADME, cell-based; conditions: nih3t3, 24 h
# [15] = Induction of TOP2A mRNA expression in human A549 cells assessed as fold increase in mRNA expression at 2 uM incubated for 18 hrs by real time PCR analysis; assay type: cell-based
# TOP2A promoter [16] = assay: Binding affinity to 5'-AACGTT-3' DNA promoter TOP2A (unknown origin) at 3 uM by DNase1 footprinting based Autoradiogram analysis; assay type: nucleic-acid assay
# TOP2A promoter [17] = assay: Inhibition of 5'-TACGAT-3 (unknown origin) binding to 32P-radiolabeled DNA ICB2 -binding site (unknown origin) assessed as disruption NF-Y/ICB2 interaction using NIH3T3 cell nuclear protein extract at >= 1 uM incubated for 1 hr by electrophoretic mobility shift assay; conditions: dose microM >=1, time 1.0 hrs
# TOP2A promoter [18] = assay: Inhibition of 5'-TACGAT-3 (unknown origin) binding to 32P-radiolabeled DNA ICB2 -binding site (unknown origin) assessed as disruption NF-Y/ICB2 interaction using NIH3T3 cell nuclear protein extract at >= 3 uM incubated for 1 hr by electrophoretic mobility shift assay; conditions: dose microM >=3, time 1.0 hrs
# TOP2A promoter [19] = assay: Binding affinity to 5'-AACGTT-3' DNA (unknown origin) at 0.5 uM by DNase1 footprinting based Autoradiogram analysis; assay type: nucleic-acid assay
# TOP2A promoter [20] = assay: Binding affinity to 5'-AACGTT-3' DNA (unknown origin) at 1 uM by DNase1 footprinting based Autoradiogram analysis; assay type: nucleic-acid assay
# TOP2A promoter [21] = assay: Inhibition of 5'-TACGAT-3 (unknown origin) binding to 32P-radiolabeled DNA ICB2 -binding site (unknown origin) assessed as disruption NF-Y/ICB2 interaction using NIH3T3 cell nuclear protein extract incubated for 1 hr by electrophoretic mobility shift assay
# [22] = Drug uptake in mouse NIH3T3 cells assessed as fluorescence in mitochondria upto 20 uM incubated for 24 hrs under dark condition by mito-tracker red dye based confocal microscopic analysis; assay type: ADME; conditions: nih3t3, 24 h
smiles,measurement,setting,value
COc1ccc(-c2nc3ccc(C(=O)Nc4cn(C)c(C(=O)Nc5cc(C(=O)NCCCN(C)C)n(C)c5)n4)cc3[nH]2)cc1,Activity,DNA [1],inactive
same,Flu intensity,[2],13.96
same,Activity,DNA [3],Active
same,Flu intensity,[4],32.03
same,Activity,TOP2A promoter [5],Active
same,Activity,DNA [6],inactive
same,Activity,DNA [7],inactive
same,Activity,DNA [8],Active
same,Activity,TOP2A promoter [9],inactive
same,Activity,DNA [10],inactive
same,Flu intensity,[11],2.75
same,Activity,DNA [12],inactive
same,Activity,DNA [13],inactive
CN(C)CCCNC(=O)c1cc(NC(=O)c2nc(NC(=O)c3ccc4nc(-c5ccc(F)cc5)[nH]c4c3)cn2C)cn1C,Drug uptake,[14],Active
same,Flu intensity,[2],6.08
same,Flu intensity,[4],15.01
same,Activity,TOP2A promoter [5],Active
same,fold induction at 2 µM,"[15]; Homo sapiens, A549, read-out: FC",1.7
same,Activity,TOP2A promoter [16],Active
same,Flu intensity,[11],1.12
same,inhibition,TOP2A promoter [17],Active
CN(C)CCCNC(=O)c1cc(NC(=O)c2nc(NC(=O)c3ccc4nc(-c5cc6ccccc6o5)[nH]c4c3)cn2C)cn1C,inhibition,TOP2A promoter [18],Active
COc1ccc(-c2nc3ccc(C(=O)Nc4cn(C)c(C(=O)Nc5cc(C(=O)NCCCN(C)C)n(C)c5)n4)cc3[nH]2)cn1,inhibition,TOP2A promoter [18],Active
CN(C)CCCNC(=O)c1cc(NC(=O)c2nc(NC(=O)c3ccc4nc(-c5ccco5)[nH]c4c3)cn2C)cn1C,inhibition,TOP2A promoter [18],Active
CN(C)CCCNC(=O)c1cc(NC(=O)c2nc(NC(=O)c3ccc4nc(-c5ccncc5)[nH]c4c3)cn2C)cn1C,Activity,TOP2A promoter [19],Active
same,Flu intensity,[2],1.49
same,Flu intensity,[4],1.6
same,Activity,"[15]; human, a549, 18 h, 2 µM",Not Active
same,Activity,TOP2A promoter [20],Active
same,inhibition,TOP2A promoter [21],Dose-Dependent Effect
same,Flu intensity,[11],1.29
same,Drug uptake,[22],Active
